Results reported in ChEMBL document CHEMBL2169792, “Synthesis of new 4-thiazolidinone-, pyrazoline-, and isatin-based conjugates with promising antitumor activity” (J Med Chem, 2012).
Calls of active or inactive are those of the source. The rule behind the calls is not given here.

What was measured:
[1] = system: PC-3; assay: Cytotoxicity against human PC3 cells after 48 hrs by SRB assay; assay type: functional; settings: PC-3, 48 h
[2] = system: OVCAR-3; assay: Cytotoxicity against human OVCAR3 cells after 48 hrs by SRB assay; assay type: functional; settings: OVCAR-3, 48 h
[3] = system: EKVX; assay: Cytotoxicity against human EKVX cells after 48 hrs by SRB assay; assay type: functional
[4] = system: SNB-75; assay: Cytotoxicity against human SNB75 cells after 48 hrs by SRB assay; assay type: functional; settings: SNB-75, 48 h
[5] = system: RXF 393; assay: Cytotoxicity against human RXF393 cells after 48 hrs by SRB assay; assay type: functional; settings: RXF 393, 48 h
[6] = system: ACHN; assay: Cytotoxicity against human ACHN cells after 48 hrs by SRB assay; assay type: functional
[7] = system: MDA-MB-231; assay: Cytotoxicity against human MDA-MB-231 cells after 48 hrs by SRB assay; assay type: functional; settings: MDA-MB-231, 48 h
[8] = system: HOP-62; assay: Cytotoxicity against human HOP62 cells after 48 hrs by SRB assay; assay type: functional; settings: HOP-62, 48 h
[9] = system: TK-10; assay: Cytotoxicity against human TK10 cells after 48 hrs by SRB assay; assay type: functional; settings: TK-10, 48 h
[10] = system: NCI-H522; assay: Cytotoxicity against human NCI-H522 cells after 48 hrs by SRB assay; assay type: functional; settings: NCI-H522, 48 h
[11] = system: Mus musculus; assay: Antitumor activity in ip dosed athymic nude mouse hollow fiber model assessed as reduction of viable cell mass; assay type: functional, organism-based
[12] = system: SF-539; assay: Cytotoxicity against human SF539 cells after 48 hrs by SRB assay; assay type: functional; settings: SF-539, 48 h
[13] = system: 786-0; assay: Cytotoxicity against human 786-0 cells after 48 hrs by SRB assay; assay type: functional; settings: 786-0, 48 h
[14] = system: UACC-257; assay: Cytotoxicity against human UACC257 cells after 48 hrs by SRB assay; assay type: functional; settings: UACC-257, 48 h
[15] = system: UO-31; assay: Cytotoxicity against human UO31 cells after 48 hrs by SRB assay; assay type: functional; settings: UO-31, 48 h
[16] = Cytotoxicity against human leukemia cells after 48 hrs by SRB assay; assay type: functional; settings: Leukemia cell
[17] = system: A498; assay: Cytotoxicity against human A498 cells after 48 hrs by SRB assay; assay type: functional; settings: A498, 48 h
[18] = system: SF-295; assay: Cytotoxicity against human SF295 cells after 48 hrs by SRB assay; assay type: functional; settings: SF-295, 48 h
[19] = system: T47D; assay: Cytotoxicity against human T47D cells after 48 hrs by SRB assay; assay type: functional
[20] = Cytotoxicity against human melanoma cells after 48 hrs by SRB assay; assay type: functional; settings: Melanoma cell
[21] = system: IGROV-1; assay: Cytotoxicity against human IGROV1 cells after 48 hrs by SRB assay; assay type: functional; settings: IGROV-1, 48 h
[22] = system: K562; assay: Cytotoxicity against human K562 cells after 48 hrs by SRB assay; assay type: functional; settings: K562, 48 h
[23] = system: SF-268; assay: Cytotoxicity against human SF268 cells after 48 hrs by SRB assay; assay type: functional; settings: SF-268, 48 h
[24] = Cytotoxicity against human ovarian cancer cells after 48 hrs by SRB assay; assay type: functional; settings: Cancer cell lines
[25] = system: HCT-15; assay: Cytotoxicity against human HCT15 cells after 48 hrs by SRB assay; assay type: functional; settings: HCT-15, 48 h
[26] = system: MOLT-4; assay: Cytotoxicity against human MOLT4 cells after 48 hrs by SRB assay; assay type: functional; settings: MOLT-4, 48 h
[27] = system: SNB-19; assay: Cytotoxicity against human SNB19 cells after 48 hrs by SRB assay; assay type: functional; settings: SNB-19, 48 h
[28] = system: RPMI-8226; assay: Cytotoxicity against human RPMI8226 cells after 48 hrs by SRB assay; assay type: functional; settings: RPMI-8226, 48 h
[29] = system: UACC-62; assay: Cytotoxicity against human UACC62 cells after 48 hrs by SRB assay; assay type: functional; settings: UACC-62, 48 h
[30] = system: CAKI-1; assay: Cytotoxicity against human CAKI-1 cells after 48 hrs by SRB assay; assay type: functional; settings: CAKI-1, 48 h
[31] = system: SN12C; assay: Cytotoxicity against human SN12C cells after 48 hrs by SRB assay; assay type: functional
[32] = system: MCF7; assay: Cytotoxicity against human MCF7 cells after 48 hrs by SRB assay; assay type: functional; settings: MCF7, 48 h
[33] = system: COLO 205; assay: Cytotoxicity against human COLO205 cells after 48 hrs by SRB assay; assay type: functional; settings: COLO 205, 48 h
[34] = system: M14; assay: Cytotoxicity against human M14 cells after 48 hrs by SRB assay; assay type: functional; settings: M14, 48 h
[35] = system: SK-MEL-28; assay: Cytotoxicity against human SK-MEL-28 cells after 48 hrs by SRB assay; assay type: functional; settings: SK-MEL-28, 48 h
[36] = system: OVCAR-5; assay: Cytotoxicity against human OVCAR5 cells after 48 hrs by SRB assay; assay type: functional; settings: OVCAR-5, 48 h
[37] = read-out: LC50 (the source's name)

COc1ccc(C2CC(c3ccc4ccccc4c3)=NN2C2=NC(=O)/C(=C3\C(=O)Nc4ccc(Br)cc43)S2)cc1 (configuration not stated)
GI50 [1]: 0.026 µM | TGI [1]: 0.0827 µM | CC50 [1, 37]: 5.46 µM | GI50 [2]: 0.0216 µM | TGI [2]: 0.045 µM | CC50 [2, 37]: 0.0937 µM | GI50 [3]: 0.0476 µM | TGI [3]: 0.426 µM | CC50 [3, 37]: > 100 µM | GI50 [4]: 0.0159 µM | TGI [4]: 0.0343 µM | CC50 [4, 37]: > 0.0698 µM | GI50 [5]: 0.0197 µM | TGI [5]: 0.0403 µM | CC50 [5, 37]: 0.0822 µM | GI50 [6]: 0.0267 µM | TGI [6]: 0.0646 µM | CC50 [6, 37]: > 32.3 µM | GI50 [7]: 0.0145 µM | TGI [7]: 0.0627 µM | CC50 [7, 37]: 0.349 µM | GI50 [8]: 0.022 µM | TGI [8]: 0.0498 µM | CC50 [8, 37]: > 0.157 µM | GI50 [9]: 0.17 µM | TGI [9]: 0.522 µM | CC50 [9, 37]: > 100 µM | GI50 [10]: 0.124 µM | TGI [10]: 0.288 µM | Activity [11]: inactive | GI50 [12]: 0.0231 µM | TGI [12]: 0.0542 µM | CC50 [12, 37]: 0.296 µM | GI50 [13]: 0.0194 µM | TGI [13]: 0.0387 µM | CC50 [13, 37]: > 0.0772 µM | GI50 [14]: 0.0511 µM | TGI [14]: 0.318 µM | CC50 [14, 37]: > 100 µM | GI50 [15]: 0.0578 µM | GI50 [16]: 0.13 µM | TGI [16]: 3.37 µM | CC50 [16, 37]: 87.8 µM | GI50 [17]: 0.0251 µM | TGI [17]: 0.0786 µM | CC50 [17, 37]: 0.316 µM | GI50 [18]: 0.0265 µM | TGI [18]: 0.0786 µM | CC50 [18, 37]: 1.17 µM | GI50 [19]: 0.0236 µM | TGI [19]: 0.061 µM | GI50 [20]: 0.069 µM | TGI [20]: 0.19 µM | CC50 [20, 37]: 3.52 µM | GI50 [21]: 0.0498 µM | TGI [21]: 0.451 µM | CC50 [21, 37]: > 100 µM | GI50 [22]: 0.037 µM | TGI [22]: > 12.4 µM | CC50 [22, 37]: > 100 µM | GI50 [23]: 0.0365 µM | TGI [23]: 0.222 µM | CC50 [23, 37]: 9.63 µM | GI50 [24]: 0.11 µM | LC50 (concentration causing 50% net cell kill) [24]: 18.8 µM | TGI [24]: 0.85 µM | GI50 [25]: 0.0629 µM | TGI [25]: 0.325 µM | CC50 [25, 37]: > 2.45 µM | GI50 [26]: 0.0307 µM | TGI [26]: 0.521 µM | CC50 [26, 37]: > 100 µM | GI50 [27]: 0.0385 µM | TGI [27]: 0.411 µM | CC50 [27, 37]: 8.98 µM | GI50 [28]: 0.214 µM | TGI [28]: 1.4 µM | CC50 [28, 37]: > 42.2 µM | GI50 [29]: 0.0547 µM | TGI [29]: 0.261 µM | CC50 [29, 37]: 1.19 µM | GI50 [30]: 0.0965 µM | TGI [30]: 0.608 µM | CC50 [30, 37]: > 100 µM | GI50 [31]: 0.0434 µM | TGI [31]: 0.223 µM | CC50 [31, 37]: 1.7 µM | GI50 [32]: 0.0264 µM | TGI [32]: > 0.0747 µM | CC50 [32, 37]: > 0.586 µM | GI50 [33]: 0.021 µM | TGI [33]: 0.042 µM | CC50 [33, 37]: > 0.0841 µM | GI50 [34]: 0.0245 µM | TGI [34]: 0.0593 µM | CC50 [34, 37]: > 0.21 µM | GI50 [35]: 0.0218 µM | TGI [35]: 0.0515 µM | CC50 [35, 37]: > 0.205 µM | GI50 [36]: 0.0336 µM | TGI [36]: 0.131 µM | CC50 [36, 37]: 2.11 µM
